Measured values: US7473783B2, “Bicyclic pyrazolo protein kinase modulators” (SGX Pharmaceuticals, Inc., priority 2003, dated 2009)
pIC50: −log10 of the molar value.

What was measured:
cAbl = target: T1, cAbl (Mus musculus, UniProt P00520); assay: Abl kinase assay (PK/LDH coupled, NADH loss at 340 nm); format: biochemical; settings: Table 7; 10 μM ATP
T1 construct: 2 μg/mL Abl kinase domain; made in house; host or cells: E. coli BL21(DE3) strains
T1 sequence (P00520 242-493 limits assumed): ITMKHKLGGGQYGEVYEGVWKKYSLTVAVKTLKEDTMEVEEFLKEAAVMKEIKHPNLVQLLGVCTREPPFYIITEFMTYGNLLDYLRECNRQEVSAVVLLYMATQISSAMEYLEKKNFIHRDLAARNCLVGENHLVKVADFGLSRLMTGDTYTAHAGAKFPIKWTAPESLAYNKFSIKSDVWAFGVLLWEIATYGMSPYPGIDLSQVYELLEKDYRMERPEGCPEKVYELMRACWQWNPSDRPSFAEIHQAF
From the text: (§1) Although this example presents the use of the kinase domain of a mutant form of Abl T315I 0-P, the kinase assays may use various forms of mutant and wild type Abl, including, for example, the entire molecule, the kinase domain, or a portion thereof. The kinases used in the assays may also be of varying phophorylation states. In the present example, a mutant kinase at a zero phosphorylation state was used.
Materials: Abl substrate peptide=EAIYAAPFAKKK-OH (Biopeptide, SD CA); βNADH (Sigma CAT#N-8129, FW=709.4); 2M MgCl2; 1M HEPES buffer, pH 7.5; Phosphoenolpyruvate=PEP (Sigma CAT#P-7002, FW=234); Lactate dehydrogenase=LDH (Worthington Biochemical CAT#2756); Pyruvate Kinase=PK (Sigma CAT#P-9136); ATP (Sigma CAT#A-3377, FW=551); Greiner 384-well UV star plate; and Purified and unphosphorylated T315I Abl kinase domain (clone 5582d42PPt6p6).
Stock Solutions: 10 mM NADH (7.09 mg/mL in miliQH2O) make fresh daily; 10 mM Abl substrate peptide (13.4 mg/mL in miliQH2O) store at −20° C.; 100 mM HEPES buffer, pH 7.5 (5 mL 1M stock+45 mL miliQH2O); 100 mM MgCl2 (5 mL 2M MgCl2+95 ml dH2O); 100 mM PEP (23.4 mg/mL in dH2O) store at −20° C.; 10 mM ATP (5.51 mg/mL in dH2O) store at −20° C. (dilute 50 μL into total of 10 mL miliQH2O daily=50 μM ATP working stock); 1000 U/mL PK (U/mg varies with lot) flash-freeze under liquid N2 and store at −80° C.; and 1000 U/mL LDH (U/mg varies with lot) flash-freeze under liquid N2 and store at −80° C.
Standard Assay Setup for 384-well format (50 μl reaction): 300 μM NADH; 10 mM MgCl2; 2 mM PEP; 45 U/mL PK; 60 U/mL LDH; 200 μM Abl substrate peptide; 2.5 μL test compound (in DMSO); 2 μg/mL Abl kinase domain; 10 μM ATP; 100 mM HEPES buffer; QS with miliQ dH2O to 50 μL; Positive controls contained DMSO with no test compound. Negative controls contained 5 μl of 0.5M EDTA (50 mM in the assay). The dephosphorylated form of the c-Abl T315I mutant were used in the biochemical screening assays. The kinase reaction was initiated at time t=0 by the addition of ATP.
The activity was measured by following the time-dependent loss of NADH by absorbance spectroscopy at 340 nm. The linear portion of the resulting progress curve was then be analyzed by linear regression to get the activity in absorbance units/time, reported as the slope of that best fit line (moles/unit time can be calculated from using molar extinction coefficient for NADH at 340 nm, 6250M^−1cm^−1).
Data was analyzed using the equation: Z′=1-[3*(σ++σ−)/|μ+−μ−|], where μ denotes the mean and σ the standard deviation. The subscript designates positive or negative controls. The Z′ score for a robust screening assay should be ≧0.50. The typical threshold=μ+−3*σ+. Any value that falls below the threshold was designated a “hit”.
Dose response was analyzed using the equation: y=min+{(max−min)/(1+10^[compound]-logIC50)}, where y is the observed initial slope, max=the slope in the absence of inhibitor, min=the slope at infinite inhibitor, and the IC50 is the [compound] that corresponds to ½ the total observed amplitude (Amplitude=max−min).
To measure modulation, activation, or inhibition of AblKD, a test compound was added to the assay at a range of concentrations. Inhibitors may inhibit AblKD activity at an IC50 in the micromolar range, the nanomolar range, and, for example, in the subnanomolar range.
To measure the binding of a compound to Abl or AblKD, a test kit manufactured by Discoverx (Fremont, Calif.), ED—Staurosporine NSIP™ Enzyme Binding Assay Kit (see U.S. Pat. No. 5,643,734) was used.

wild type MET kinase = target: T2, wild type MET kinase (Homo sapiens, UniProt P08581); assay: MET Kinase-Glo assay; format: biochemical; settings: Table 9, 60 minutes at RT
T2 construct: made in house
From the text: as §1, with “wild type MET and RON […],” for “the kinase domain of a mutant form of Abl T315I 0-P,”, “RON or MET,” for “Abl,”, “intracellular domain,” for “molecule,”, “case of RON,” for “present example,”
(§2) For the MET and RON assays, the Kinase-Glo® assay system (Promega) was used, which employs firefly luciferase to detect the amount of ATP following a kinase reaction. This assay system has two steps. First, the kinase reaction is run for a designated period of time. Next, an equivalent volume of Kinase-Glo reagent is added to quench the kinase reaction and detect the ATP remaining in the sample. The total light output is read by a plate-reading luminometer and the resulting signal is stable for 4 hours. Inhibition of kinase activity translates into lower ATP consumption and thus higher light output during the detection step.
(§3) Materials: Poly EY 4:1 (Sigma); MgCl2 (2M stock available from Lab Support); HEPES buffer, pH 7.5; Bovine serum albumin (Roche 92423420); ATP (Sigma CAT#A-3377, FW=551); White Costar 384-well flat-bottom plate (VWR 29444-088); and SGX RON kinase clone (M1254T activation loop mutant) or SGX MET kinase clone.
MET enzyme mix: 100 mM HEPES pH 7.5, 10 mM MgCl2, 0.3 mg/mL poly EY, 0.1% BSA, and 0.4 μg/mL MET kinase.
(§4) To each well of a multiwell plate was added 15 μL of the enzyme mix, 1 μL of compound at 20-times the desired final assay concentration (or DMSO for positive controls or 200 μM staurosporine for negative controls), and 4 μL of 50 μM ATP to start the reaction. The kinase was reaction to allowed to proceed for 60 minutes at RT for the MET assay. For the RON assay, the reaction proceeded at RT for 60 minutes to 120 minutes (depending on enzyme prep). 20 μL Kinase-Glo reagent was then added to each well. The reagent was incubated for at least 10 minutes before plate reading.
(§5) Data anlaysis was performed using methods similar to those described above in the Abl assay (Firepower®, Exegetix).

[1] = target: T3, RON kinase (M1254T activation loop mutant) (Homo sapiens, UniProt Q04912, M1254T); assay: RON Kinase-Glo assay; format: biochemical; settings: Table 9, 60 minutes to 120 minutes at RT
T3 construct: made in house
From the text: as §1, with “wild type MET and RON […],” for “the kinase domain of a mutant form of Abl T315I 0-P,”, “RON or MET,” for “Abl,”, “intracellular domain,” for “molecule,”, “case of RON,” for “present example,”
as §2, §3
RON enzyme mix: 100 mM HEPES pH 7.5, 10 mM MgCl2, 1 mg/mL poly EY, 0.1% BSA, and 3-5 μg/mL RON kinase (depending on enzyme prep).
as §4, §5

MV4-11 cells = assay: Cell survival assay (96-well XTT / 384-well AlamarBlue), MV4-11; format: cell-based; settings: Homo sapiens, Table 10, symbol outside brackets, 72 hours
Description: (§6) Flt3 cell line selection was performed according to the following two known methodologies: Kelly, et al, Cancer Cell 1:421-32 (2002); and Ye, et al, Blood 100: 2941-2949 (2002). MV4-11 and THP cells are maintained in Iscove's Modified Dulbecco's Medium supplemented with 10% fetal bovine serum (FBS) and penicillin/streptomycin, Ba/F3 cells are maintained in RPMI 1640 supplemented with 10% FBS, penicillin/streptomycin and 5ng/ml recombinant mouse IL-3.
(§7) Compounds were tested in both of the following assays in triplicates.
(§8) 96-well XTT assay: Cells are grown in their growth media containing various concentrations of compounds (triplicates) on a 96-well plate for 72 hours at 37° C. The starting cell number is 8000 cells per well and volume is 120 μl. At the end of the 72-hour incubation, 40μl of XTT labeling mixture (50:1 solution of sodium 3′-[1 -(pheylamino-carbonyl)-3,4-tetrazolium]-bis (4-methoxy-6-nitro)benzene sulfonic acid hydrate and Electron-coupling reagent: PMS (N-methyl dibenzopyrazine methyl sulfate) is added to each well of the plate. After additional 2 hours of incubation at 37° C., the absorbance reading at 405 nm with background correction at 650 nm is done using a spectrophotometer.
(§9) 384-well AlamarBlue assay: 90 μl of cell suspension is plated onto each well of a 384-well plate preprinted with 0.5 μl of compound in DMSO or DMSO only. The starting cell number is 4000 cells per well. After 72-hour incubation, 10 μl of AlamarBlue solution (440 μM resazurin in PBS) is then added to each well of the plate. After additional 2-hour incubation at 37° C., fluorescence is measured using a TECAN plate reading with excitation at 535 nm and emission 591 nm.

THP cells = assay: Cell survival assay (96-well XTT / 384-well AlamarBlue), THP; format: cell-based; settings: Table 10; symbol in brackets; 72 hours
Description: as §6, §7, §8, §9

T2 sequence (P08581 25-1390): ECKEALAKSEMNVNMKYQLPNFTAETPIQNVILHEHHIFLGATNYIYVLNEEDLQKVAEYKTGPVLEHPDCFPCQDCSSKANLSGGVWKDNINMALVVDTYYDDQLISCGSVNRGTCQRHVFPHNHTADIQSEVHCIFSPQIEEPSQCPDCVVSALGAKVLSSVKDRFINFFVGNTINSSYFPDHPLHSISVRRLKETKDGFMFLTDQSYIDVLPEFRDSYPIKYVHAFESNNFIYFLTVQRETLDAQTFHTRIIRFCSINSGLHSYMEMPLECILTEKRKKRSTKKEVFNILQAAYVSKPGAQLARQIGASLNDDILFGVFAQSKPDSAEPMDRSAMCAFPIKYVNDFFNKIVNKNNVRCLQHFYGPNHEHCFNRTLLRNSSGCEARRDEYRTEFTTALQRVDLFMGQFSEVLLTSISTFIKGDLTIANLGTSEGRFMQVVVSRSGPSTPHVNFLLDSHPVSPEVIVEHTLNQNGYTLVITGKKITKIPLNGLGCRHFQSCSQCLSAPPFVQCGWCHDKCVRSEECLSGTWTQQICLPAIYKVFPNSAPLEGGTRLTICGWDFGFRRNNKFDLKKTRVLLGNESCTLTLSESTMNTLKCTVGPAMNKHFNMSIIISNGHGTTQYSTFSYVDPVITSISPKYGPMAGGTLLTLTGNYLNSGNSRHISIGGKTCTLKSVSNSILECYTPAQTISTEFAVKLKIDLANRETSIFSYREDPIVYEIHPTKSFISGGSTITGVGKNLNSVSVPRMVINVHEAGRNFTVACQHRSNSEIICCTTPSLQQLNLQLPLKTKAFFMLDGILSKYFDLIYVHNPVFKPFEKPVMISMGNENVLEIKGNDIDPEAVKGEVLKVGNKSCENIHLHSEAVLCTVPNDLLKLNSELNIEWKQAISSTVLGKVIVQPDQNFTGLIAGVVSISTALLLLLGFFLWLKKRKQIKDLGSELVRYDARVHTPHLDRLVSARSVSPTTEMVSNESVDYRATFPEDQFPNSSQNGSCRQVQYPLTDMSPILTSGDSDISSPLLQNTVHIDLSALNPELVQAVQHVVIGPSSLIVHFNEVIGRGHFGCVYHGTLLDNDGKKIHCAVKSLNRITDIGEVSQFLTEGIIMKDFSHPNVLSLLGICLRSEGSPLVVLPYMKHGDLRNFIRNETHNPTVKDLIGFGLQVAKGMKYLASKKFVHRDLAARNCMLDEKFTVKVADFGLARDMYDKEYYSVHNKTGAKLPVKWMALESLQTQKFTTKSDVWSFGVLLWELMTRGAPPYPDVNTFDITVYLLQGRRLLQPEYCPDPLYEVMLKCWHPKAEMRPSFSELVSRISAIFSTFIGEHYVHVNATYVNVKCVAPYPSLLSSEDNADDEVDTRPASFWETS
T3 sequence (Q04912 25-1400 M1254T): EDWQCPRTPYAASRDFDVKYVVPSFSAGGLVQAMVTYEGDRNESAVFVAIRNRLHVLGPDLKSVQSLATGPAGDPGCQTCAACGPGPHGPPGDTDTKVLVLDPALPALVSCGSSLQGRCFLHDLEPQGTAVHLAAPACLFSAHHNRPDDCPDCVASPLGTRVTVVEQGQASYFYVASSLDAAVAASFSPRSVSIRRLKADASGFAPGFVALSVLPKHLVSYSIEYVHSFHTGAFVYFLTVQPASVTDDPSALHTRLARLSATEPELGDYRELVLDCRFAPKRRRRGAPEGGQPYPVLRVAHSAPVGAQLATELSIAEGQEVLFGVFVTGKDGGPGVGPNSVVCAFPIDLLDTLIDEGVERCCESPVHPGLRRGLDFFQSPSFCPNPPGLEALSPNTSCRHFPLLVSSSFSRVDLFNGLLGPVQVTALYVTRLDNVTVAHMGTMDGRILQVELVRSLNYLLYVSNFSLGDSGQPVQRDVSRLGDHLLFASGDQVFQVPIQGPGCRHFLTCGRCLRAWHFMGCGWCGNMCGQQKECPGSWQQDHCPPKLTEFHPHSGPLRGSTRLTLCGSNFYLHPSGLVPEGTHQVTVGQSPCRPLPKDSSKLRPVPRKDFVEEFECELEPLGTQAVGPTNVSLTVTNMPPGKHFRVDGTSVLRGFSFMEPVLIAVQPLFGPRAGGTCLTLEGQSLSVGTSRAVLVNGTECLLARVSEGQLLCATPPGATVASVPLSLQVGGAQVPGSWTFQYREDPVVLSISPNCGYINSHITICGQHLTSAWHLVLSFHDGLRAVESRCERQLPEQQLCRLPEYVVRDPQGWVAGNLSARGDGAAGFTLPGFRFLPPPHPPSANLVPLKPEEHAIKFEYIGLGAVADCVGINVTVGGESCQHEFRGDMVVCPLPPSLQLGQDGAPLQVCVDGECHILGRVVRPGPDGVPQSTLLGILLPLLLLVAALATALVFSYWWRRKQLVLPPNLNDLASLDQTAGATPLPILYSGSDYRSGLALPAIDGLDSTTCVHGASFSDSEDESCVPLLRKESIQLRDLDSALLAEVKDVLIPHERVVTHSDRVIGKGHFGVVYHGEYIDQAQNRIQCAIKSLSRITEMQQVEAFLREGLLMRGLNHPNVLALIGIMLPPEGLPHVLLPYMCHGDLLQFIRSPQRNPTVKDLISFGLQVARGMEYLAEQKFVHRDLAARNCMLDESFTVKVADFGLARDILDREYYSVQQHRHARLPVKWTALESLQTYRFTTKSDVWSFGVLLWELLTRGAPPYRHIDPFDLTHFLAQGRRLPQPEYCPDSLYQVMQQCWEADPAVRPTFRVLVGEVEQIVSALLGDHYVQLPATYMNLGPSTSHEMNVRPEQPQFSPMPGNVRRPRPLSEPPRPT

`Nc1nc2[nH]nc(-c3ccccc3)c2s1` was tested. Which pIC50 (cAbl) did it give?
Its pIC50 is 4.00 to 4.96.

How did the pIC50 (cAbl) turn out when `O=C(Nc1nc2[nH]nc(-c3cccc(Cl)c3)c2s1)c1ccccc1` was run?
The pIC50 was 5.00 to 6.00.

How did the pIC50 (cAbl) turn out when `O=C(Nc1nc2[nH]nc(-c3ccccn3)c2s1)c1ccccc1` was run?
Its pIC50 is 4.00 to 4.96.

`COc1ccc(-c2n[nH]c3nc(NC(=O)c4ccccc4)sc23)cc1` was tested. Which pIC50 (cAbl) did it give?
The pIC50 was 4.00 to 4.96.

How did the pIC50 (cAbl) turn out when `O=C(Cc1cccs1)Nc1nc2[nH]nc(-c3ccccc3)c2s1` was run?
Its pIC50 is over 6.00.

`CC(C)C(=O)Nc1nc2[nH]nc(-c3ccccc3Cl)c2s1` was tested. Which pIC50 (wild type MET kinase) did it give?
The pIC50 was over 5.30.

And the pIC50 [1]?
The pIC50 was 4.70 to 5.30.

With `COc1cccc(OC)c1C(=O)Nc1nc2[nH]nc(-c3ccccc3Cl)c2s1` as the compound, how does the pIC50 (wild type MET kinase) read?
The pIC50 was 4.70 to 5.30.

What about the pIC50 [1] of the same compound?
The pIC50 was 4.70 to 5.30.

How did the pIC50 (wild type MET kinase) turn out when `CC(=O)O[C@@H](C)C(=O)Nc1nc2[nH]nc(-c3ccccc3Cl)c2s1` was run?
Its pIC50 is under 4.70.

And the pIC50 [1]?
Its pIC50 is under 4.70.

With `O=C(Nc1nc2[nH]nc(-c3ccccc3)c2s1)c1ccco1` [drawing 264] as the compound, how does the pIC50 (cAbl) read?
The pIC50 was over 6.00.

With `O=C(Nc1nc2[nH]nc(-c3ccc(O)cc3)c2s1)C1CC1` [drawing 274] as the compound, how does the pIC50 (wild type MET kinase) read?
The pIC50 was over 5.30.

And the pIC50 [1]?
Its pIC50 is 4.70 to 5.30.

`O=C(Nc1nc2[nH]nc(-c3ccccc3Cl)c2s1)C1CC1` [drawing 276] was tested. Which pIC50 (wild type MET kinase) did it give?
The pIC50 was over 5.30.

And the pIC50 [1]?
Its pIC50 is 4.70 to 5.30.

What does the source list for `O=C(Nc1nc2[nH]nc(-c3ccccc3Br)c2s1)C1CC1` [drawing 278]?
pIC50 (wild type MET kinase): 4.70 to 5.30; pIC50 [1]: < 4.70

How did the pIC50 (wild type MET kinase) turn out when `COc1ccc(-c2n[nH]c3nc(NC(=O)C4CC4)sc23)cc1` [drawing 280] was run?
Its pIC50 is under 4.70.

And the pIC50 [1]?
The pIC50 was under 4.70.

With `O=C(Nc1nc2[nH]nc(-c3ccc(Cl)cc3)c2s1)c1ccccc1` [drawing 281] as the compound, how does the pIC50 (MV4-11 cells) read?
The pIC50 was 5.00 to 6.00.

And the pIC50 (THP cells)?
Its pIC50 is 4.00 to 4.96.

`O=C(Nc1nc2[nH]nc(-c3ccccc3)c2s1)c1ccncc1` [drawing 282] was tested. Which pIC50 (MV4-11 cells) did it give?
Its pIC50 is 5.00 to 6.00.

What about the pIC50 (THP cells) of the same compound?
Its pIC50 is 4.00 to 4.96.

With `COCCOCC(=O)Nc1nc2[nH]nc(-c3ccccc3)c2s1` [drawing 283] as the compound, how does the pIC50 (MV4-11 cells) read?
Its pIC50 is 5.00 to 6.00.

And the pIC50 (THP cells)?
The pIC50 was 4.00 to 4.96.

What does the source list for `CC(=O)N1CCC(C(=O)Nc2nc3[nH]nc(-c4ccccc4)c3s2)CC1` [drawing 284]?
pIC50 (MV4-11 cells): 5.00 to 6.00; pIC50 (THP cells): 4.00 to 4.96
